Like-named read-outs stand apart in the source and are kept apart here.
Tests used:
[1] = system: Escherichia coli EC-14; assay: Protection test in mice challenged intraperitoneally with Escherichia coli EC-14; format: in vivo; conditions: for ED50: Escherichia coli, 168 h
Protocol: To each group consisting of 5 to 10 mice is challenged 2 to 3×10^5 Escherichia coli EC-14 in 5% mucin intraperitoneally. After 1 hour and 5 hours, a suspension of the ester (1) in the foregoing experiment in 5% acacia solution is administered enterally using a tube into stomach. From the survival rate after 7 days, ED50 of the drug is calculated, and the value in mg/kg is interpreted as the corresponding carboxylic acid.
For using as control, it is necessary to use the effect of the corresponding carboxylic acid. […] Then instead, the ED50 value of the corresponding carboxylic acid (2) on subcutaneous injection is assayed and this is used to evaluate the enteral absorption of the ester (1).
The control value of ED50 for the carboxylic acid (2) is estimated as follows: To each group consisting of 5 to 10 mice challenged by Escherichia coli EC-14 intraperitoneally as in the case of oral experiment above is injected a solution of the carboxylic acid (2) in 0.7% aqueous sodium hydrogen carbonate subcutaneously after 1 and 5 hours after the challenge. The ED50 value is calculated from the survival rate from 7 days and expressed in mg/kg value.

[2] = prior-art compound, statement in words; cited from earlier work
[3] = prior-art compound, statement in words; cited from earlier work; remark: listed apart in the source
[4] = p.o. 1 and 5 hours after challenge, survival after 7 days, value interpreted as the corresponding carboxylic acid, 10080 min
[5] = EC14, po, p.o. 1 and 5 hours after challenge, survival after 7 days, value interpreted as the corresponding carboxylic acid, read-out: ED50 of Ester (1) p.o.
[6] = EC14, sc, subcutaneous in 0.7% aqueous sodium hydrogen carbonate 1 and 5 hours after challenge, survival 7 days, control for ester, read-out: ED50 of Acid (2) subc.
[7] = subcutaneous in 0.7% aqueous sodium hydrogen carbonate 1 and 5 hours after challenge, survival 7 days, control for ester, 10080 min
[8] = subcutaneous in 0.7% aqueous sodium hydrogen carbonate 1 and 5 hours after challenge, survival 7 days, control for ester

7β-(2-cyanopropionamido)-7α-methoxy-3-(1-methyl-5-tetrazolyl)thiomethyl-1-dethia-1-oxa-3-cephem-4-carboxylic acid pivaloyloxymethyl ester [No. 1]
ED50 of Ester (1) p.o. ([1]; p.o. 1 and 5 hours after challenge, survival after 7 days, value interpreted as the corresponding carboxylic acid): 1.39 mg/kg

CCOC(=O)OC(C)OC(=O)C1=C(CSc2nnnn2C)CO[C@H]2N1C(=O)[C@]2(NC(=O)C(C#N)CC)OC (single isomer, unassigned) [No. 6, 7β-(2-cyano-n-butyryl)amino-7α-methoxy-3-(1-methyl-5-tetrazolyl)thiomethyl-1-dethia-1-oxa-3-cephem-4-carboxylic acid 1-(ethoxycarbonyloxy)ethyl ester]
ED50 of Ester (1) p.o. [1, 4]: 2.35 mg/kg

CCOC(=O)OC(C)OC(=O)C1=C(CSc2nnnn2C)CO[C@H]2N1C(=O)[C@]2(NC(=O)C(C#N)CC)OC (single isomer, unassigned) [compound 5]
ED50 [1, 5]: 2.22 mg/kg

CCCC(C#N)C(=O)N[C@]1(OC)C(=O)N2C(C(=O)OC(C)OC(=O)OCC)=C(CSc3nnnn3C)CO[C@@H]21 (single isomer, unassigned) [compound 7]
ED50 [1, 5]: 4.7 mg/kg

CCCC(C#N)C(=O)N[C@]1(OC)C(=O)N2C(C(=O)OC(C)OC(=O)OCC)=C(CSc3nnnn3C)CO[C@@H]21 (single isomer, unassigned) [compound 8]
ED50 of Ester (1) p.o. [1, 4]: 2.82 mg/kg

CO[C@@]1(NC(=O)C(C)C#N)C(=O)N2C(C(=O)O)=C(CSc3nnnn3C)CO[C@@H]21 (some centres unmarked) [1 (Acid (2))]
ED50 [1, 6]: 1.68 mg/kg

CCC(C#N)C(=O)N[C@]1(OC)C(=O)N2C(C(=O)O)=C(CSc3nnnn3C)CO[C@@H]21 (some centres unmarked) [2 (Acid (2))]
ED50 [1, 6]: 0.47 mg/kg

CCCC(C#N)C(=O)N[C@]1(OC)C(=O)N2C(C(=O)O)=C(CSc3nnnn3C)CO[C@@H]21 (some centres unmarked) [3 (Acid (2))]
ED50 [1, 6]: 0.6 mg/kg

CCCCC(C#N)C(=O)N[C@]1(OC)C(=O)N2C(C(=O)O)=C(CSc3nnnn3C)CO[C@@H]21 (some centres unmarked) [4 (Acid (2))]
ED50 [1, 6]: 3.18 mg/kg

CCC(C#N)C(=O)N[C@]1(OC)C(=O)N2C(C(=O)O)=C(CSc3nnnn3C)CO[C@@H]21 (some centres unmarked) [5 (Acid (2))]
ED50 of Acid (2) subc. [1, 7]: 0.45 mg/kg

CCC(C#N)C(=O)N[C@]1(OC)C(=O)N2C(C(=O)O)=C(CSc3nnnn3C)CO[C@@H]21 (some centres unmarked) [6 (Acid (2))]
ED50 of Acid (2) subc. [1, 7]: 0.45 mg/kg

CCCC(C#N)C(=O)N[C@]1(OC)C(=O)N2C(C(=O)O)=C(CSc3nnnn3C)CO[C@@H]21 (some centres unmarked) [7 (Acid (2))]
ED50 of Acid (2) subc. [1, 8]: 0.60 mg/kg

CC(=O)OCC1=C(C(=O)O)N2C(=O)[C@@H](NC(=O)CC#N)[C@H]2OC1 [7β-Cyanoacetamido-1-dethia-1-oxacephalosporanic acid]
antibacterial activity [2]: weak antibacterial

CC(=O)OCC1=C(C(=O)OCOC(=O)C(C)(C)C)N2C(=O)[C@@H](NC(=O)CC#N)[C@H]2SC1 [7β-Cyanoacetamidocephalosporanic acid pivaloyloxymethyl ester]
oral absorption [3]: does not show oral absorption sufficient as clinical drugs

CCCC(C#N)C(=O)N[C@]1(OC)C(=O)N2C(C(=O)O)=C(CSc3nnnn3C)CO[C@@H]21 (some centres unmarked) [8 (Acid (2))]
ED50 of Acid (2) subc. [1, 8]: 0.60 mg/kg

CCC(C#N)C(=O)N[C@]1(OC)C(=O)N2C(C(=O)O)=C(CSc3nncs3)CO[C@@H]21 (some centres unmarked) [9 (Acid (2))]
ED50 [1, 6]: 0.77 mg/kg

CCC(C#N)C(=O)N[C@]1(OC)C(=O)N2C(C(=O)O)=C(CSc3nncs3)CO[C@@H]21 (some centres unmarked) [10 (Acid (2))]
ED50 of Acid (2) subc. [1, 8]: 0.77 mg/kg

CCC(C#N)C(=O)N[C@]1(OC)C(=O)N2C(C(=O)O)=C(CSc3nnc(C)s3)CO[C@@H]21 (some centres unmarked) [11 (Acid (2))]
ED50 [1, 6]: 0.87 mg/kg

CCC(C#N)C(=O)N[C@]1(OC)C(=O)N2C(C(=O)OCOC(=O)C(C)(C)C)=C(CSc3nncs3)CO[C@@H]21 (some centres unmarked) [No. 9]
ED50 [1, 5]: 6.5 mg/kg

CCCC(C#N)C(=O)N[C@]1(OC)C(=O)N2C(C(=O)OCOC(=O)C(C)(C)C)=C(CSc3nnnn3C)CO[C@@H]21 (some centres unmarked) [compound 3]
ED50 [1, 5]: 5.32 mg/kg

CCCCC(C#N)C(=O)N[C@]1(OC)C(=O)N2C(C(=O)OCOC(=O)C(C)(C)C)=C(CSc3nnnn3C)CO[C@@H]21 (some centres unmarked) [compound 4]
ED50 [1, 5]: 29.8 mg/kg

CCOC(=O)OC(C)OC(=O)C1=C(CSc2nncs2)CO[C@H]2N1C(=O)[C@]2(NC(=O)C(C#N)CC)OC (some centres unmarked) [compound 10]
ED50 [1, 5]: 3.23 mg/kg

CCC(C#N)C(=O)N[C@]1(OC)C(=O)N2C(C(=O)OCOC(=O)C(C)(C)C)=C(CSc3nnc(C)s3)CO[C@@H]21 (some centres unmarked) [compound 11]
ED50 [1, 5]: 3.7 mg/kg

From US4376770A, “Cephalosporin analogs for oral use” (Shionogi & Co., Ltd., priority 1980, dated 1983)
